Test results: patent US10350224B2, “Stabilized modified release vitamin D formulation and method of administering same” (OPKO IRELAND GLOBAL HOLDINGS, LTD., priority 2013, dated 2019)
Where two headings read alike, the source gives them in different places.

Assays:
[1] = Study A: single-dose pharmacokinetics of serum 25-hydroxyvitamin D3 in subjects with stage 3 or 4 CKD; type: in vivo, human; conditions: for Tmax / Cmax / AUC(0-t) / AUC(0-inf) / half-life: human, serum, iv, 448 ug
[2] = system: serum total 1,25-dihydroxyvitamin D; test: Study A: serum total 1,25-dihydroxyvitamin D after single dose; type: in vivo, human; conditions: single i.v. dose 448 μg, by 6 hours post-dose
[3] = system: serum iPTH; test: Study A: serum iPTH after single dose; type: in vivo, human; conditions: single i.v. dose 448 μg, first 96 hours
[4] = Study B: single-dose pharmacokinetics of 25-hydroxyvitamin D3 in healthy subjects; type: in vivo; conditions: human, serum, iv, 448 ug, single i.v. dose 448 μg in ethanol solution
[5] = baseline-adjusted 25-hydroxyvitamin D3, 448 μg iv single dose
[6] = observed 25-hydroxyvitamin D3, 448 μg iv single dose

CL mean (SD) [1, 5]: 0.036 (0.014) L/ng * h
CL median [1, 5]: 0.037 L/ng/h
F mean [1, 5]: 1.000 (NA)
Vd mean (SD) [1, 5]: 32.94 (11.00) L/ng
Vd median [1, 5]: 29.70 L/ng
λ2 mean (SD) [1, 5]: 0.0011 (0.0005) h^−1
λ2 median [1, 5]: 0.0010 h⁻¹
Tmax ([1]; Study A, single i.v. dose 448 μg in ethanol solution, read-out: Tmax): 30 min
Cmax ([1]; approximate mean Cmax of 25-hydroxyvitamin D3, Study A, single i.v. dose 448 μg in ethanol solution): ~134 ng/mL
AUC(0-t) ([1]; baseline-adjusted 25-hydroxyvitamin D3, 448 μg iv single dose, read-out: AUC0-42 days mean): 19600 ng·h/mL
AUC(0-t) ([1]; baseline-adjusted 25-hydroxyvitamin D3, 448 μg iv single dose, read-out: AUC0-42 days median): 18800 ng·h/mL
AUC(0-inf) ([1]; baseline-adjusted 25-hydroxyvitamin D3, 448 μg iv single dose, read-out: AUC0-inf mean): 34500 ng·h/mL
AUC(0-inf) ([1]; baseline-adjusted 25-hydroxyvitamin D3, 448 μg iv single dose, read-out: AUC0-inf median): 27000 ng·h/mL
AUC(0-t) ([1]; baseline-adjusted 25-hydroxyvitamin D3, 448 μg iv single dose, read-out: AUC0-last mean): 19600 ng·h/mL
AUC(0-t) ([1]; baseline-adjusted 25-hydroxyvitamin D3, 448 μg iv single dose, read-out: AUC0-last median): 18800 ng·h/mL
Cmax ([1]; baseline-adjusted 25-hydroxyvitamin D3, 448 μg iv single dose, read-out: Cmax mean (SD)): 110 ng/mL
Cmax ([1]; baseline-adjusted 25-hydroxyvitamin D3, 448 μg iv single dose, read-out: Cmax median): 111 ng/mL
half-life ([1]; baseline-adjusted 25-hydroxyvitamin D3, 448 μg iv single dose, read-out: t1/2 mean (SD) (converted)): 31.1 days
half-life ([1]; baseline-adjusted 25-hydroxyvitamin D3, 448 μg iv single dose, read-out: t1/2 median (converted)): 27.6 days
Tmax ([1]; baseline-adjusted 25-hydroxyvitamin D3, 448 μg iv single dose, read-out: tmax mean (SD)): 29.4 min
Tmax ([1]; baseline-adjusted 25-hydroxyvitamin D3, 448 μg iv single dose, read-out: tmax median): 15 min
AUC(0-t) ([1]; observed 25-hydroxyvitamin D3, 448 μg iv single dose, read-out: AUC0-42 days mean): 43500 ng·h/mL
AUC(0-t) ([1]; observed 25-hydroxyvitamin D3, 448 μg iv single dose, read-out: AUC0-42 days median): 47100 ng·h/mL
AUC(0-inf) ([1]; observed 25-hydroxyvitamin D3, 448 μg iv single dose, read-out: AUC0-inf mean): 138000 ng·h/mL
AUC(0-inf) ([1]; observed 25-hydroxyvitamin D3, 448 μg iv single dose, read-out: AUC0-inf median): 124000 ng·h/mL
AUC(0-t) ([1]; observed 25-hydroxyvitamin D3, 448 μg iv single dose, read-out: AUC0-last mean): 43500 ng·h/mL
AUC(0-t) ([1]; observed 25-hydroxyvitamin D3, 448 μg iv single dose, read-out: AUC0-last median): 47100 ng·h/mL
Cmax ([1]; observed 25-hydroxyvitamin D3, 448 μg iv single dose, read-out: Cmax mean (SD)): 134 ng/mL
Cmax ([1]; observed 25-hydroxyvitamin D3, 448 μg iv single dose, read-out: Cmax median): 134 ng/mL
half-life ([1]; observed 25-hydroxyvitamin D3, 448 μg iv single dose, read-out: t1/2 mean (SD) (converted)): 74 days
half-life ([1]; observed 25-hydroxyvitamin D3, 448 μg iv single dose, read-out: t1/2 median (converted)): 70.6 days
Tmax ([1]; observed 25-hydroxyvitamin D3, 448 μg iv single dose, read-out: tmax mean (SD)): 29.4 min
Tmax ([1]; observed 25-hydroxyvitamin D3, 448 μg iv single dose, read-out: tmax median): 15 min
CL mean (SD) [1, 6]: 0.0095 (0.0065) L/ng * h
CL median [1, 6]: 0.0081 L/ng/h
F mean [1, 6]: 1.000 (NA)
Vd mean (SD) [1, 6]: 20.35 (7.42) L/ng
Vd median [1, 6]: 19.550 L/ng
λ2 mean (SD) [1, 6]: 0.0005 (0.0002) h^−1
λ2 median [1, 6]: 0.0004 h⁻¹
Cmax [4]: 153 ng/mL
Structure (SMILES): C=C1CC[C@H](O)C/C1=C/C=C1\CCC[C@]2(C)[C@@H]([C@H](C)CCCC(C)(C)O)CC[C@@H]12 [25-hydroxyvitamin D3]
increase of mean serum total 1,25-dihydroxyvitamin D from pre-treatment baseline [2]: approximately 13 pg/mL
change in serum iPTH [3]: no meaningful change
